Zone of inhibition data for 5 molecules are collected here from patent publication EP0519427A2, “N-substituted-3-iodopropiolamide, production and use thereof” (priority 1991, dated 1992).

Holding throughout (assay): Antibacterial and antifungal activity, paper disc method
Holding throughout (assay type): cell-based

The test system of experiment [1] is Escherichia coli IFO-3301. The note with it: Escherichia coli. On the procedure: (§1) Antibacterial and antifungal activity tests for various bacteria and fungi were conducted. The tests were carried out by the conventional paper disc method. That is, a paper disc (d=8 mm) was dipped in aqueous or methanol solution of the compound of the present invention (concentration : 1,000 µg/ml), then dried and used.
(§2) As bacteria to be tested, • ① Staphylococcus aureus IFO-12732 [hereinafter abbreviated to Sta.] • ② Bacillus subtilis IFO-13719 [Bac.] • ③ Escherichia coli IFO-3301 [Esc.] were used. As yeast to be tested, • ④ Saccharomyces cerevisiae IFO-0210 [Sac.] • ⑤ Candida albicans IFO-0583 [Can.] were used. As fungi to be tested, • ⑥ Aspergillus niger IFO-4407 [Asp.] • ⑦ Penicillium citrinum IFO-7784 [Pen.] • ⑧ Tyromyces palustris IFO-30339 [Tyr.] • ⑨ Coriolus versicolor IFO-30340 [Cor.] were used. Among the above fungi, Tyr. and Cor. are wood rot fungi.
(§3) As the test media, agar media shown below were used. That is, TSA (Trypticase Soy Agar) medium was used for Sta., Bac. and Esc.; YNB (Yeast Nitrogen Base) agar medium was used for Sac. and Can.; SDA (Sabouraud Dextrose Agar) medium was used for Asp. and Pen.; and PDA (Potato Dextrose Agar) medium was used for Try. and Cor.
(§4) The determination of antibacterial and antifungal effectiveness was carried out by measuring the diameter of the growth inhibition circle generated on the circumference of the paper disc. The indication of effectiveness is given as follows: -: no growth inhibition circle was observed. +: diameter of the growth inhibition circle was 9 - 20 mm ++: diameter of the growth inhibition circle was 21 - 40 mm +++: diameter of the growth inhibition circle was 41 mm or more

The subject of experiment [2] is Saccharomyces cerevisiae IFO-0210. On the procedure:
as §1, §2, §3, §4

Experiment [3] relates to Tyromyces palustris IFO-30339. The note with it: read-out: diameter of the growth inhibition circle, Tyr.(IFO-30339). On the procedure:
as §1, §2, §3, §4

Experiment [4] has as its system Coriolus versicolor IFO-30340. To be noted: Trametes versicolor. As to the method: as §1, §2, §3, §4
Experiment [5] relates to Aspergillus niger IFO-4407. As to the method:
as §1, §2, §3, §4

In experiment [6] the test system is Bacillus subtilis IFO-13719. The note with it: Bacillus subtilis. As to the method:
as §1, §2, §3, §4

The test system of experiment [7] is Candida albicans IFO-0583. As to the method: as §1, §2, §3, §4
Experiment [8] has as its system Staphylococcus aureus IFO-12732. As to the method:
as §1, §2, §3, §4

The test system of experiment [9] is Penicillium citrinum IFO-7784. On the procedure: as §1, §2, §3, §4
The mark [10] stands for this setting: IFO3301, paper disc d=8 mm dipped in 1,000 µg/ml solution, TSA medium, read-out: diameter of the growth inhibition circle, Esc.(IFO-3301).
Setting [11] is: IFO0210, paper disc d=8 mm dipped in 1,000 µg/ml solution, YNB agar medium, read-out: diameter of the growth inhibition circle, Sac.(IFO-0210).
The mark [12] stands for this setting: paper disc d=8 mm dipped in 1,000 µg/ml solution, PDA medium.
[13] abbreviates: IFO30340, paper disc d=8 mm dipped in 1,000 µg/ml solution, PDA medium, read-out: diameter of the growth inhibition circle, Cor.(IFO-30340).
Setting [14] is: IFO4407, paper disc d=8 mm dipped in 1,000 µg/ml solution, SDA medium, read-out: diameter of the growth inhibition circle, Asp.(IFO-4407).
Where [15] appears, read: IFO13719, paper disc d=8 mm dipped in 1,000 µg/ml solution, TSA medium, read-out: diameter of the growth inhibition circle, Bac.(IFO-13719).
Where [16] appears, read: IFO0583, paper disc d=8 mm dipped in 1,000 µg/ml solution, YNB agar medium, read-out: diameter of the growth inhibition circle, Can.(IFO-0583).
The mark [17] stands for this setting: IFO12732, paper disc d=8 mm dipped in 1,000 µg/ml solution, TSA medium, read-out: diameter of the growth inhibition circle, Sta.(IFO-12732).
Where [18] appears, read: IFO7784, paper disc d=8 mm dipped in 1,000 µg/ml solution, SDA medium, read-out: diameter of the growth inhibition circle, Pen.(IFO-7784).

Like-named read-outs stand apart in the source and are kept apart here.

Take `O=C(C#CI)NC1CCCCC1` [Example 22, N-Cyclohexyl-3-iodopropiolamide]: the zone of inhibition at 1000 µg/mL in experiment [1] (setting [10]) was 9 to 20 mm; in experiment [2] (setting [11]), 21 to 40 mm; in experiment [3] (setting [12]), > 41 mm; in [4] (setting [13]), > 41 mm; in experiment [5] (setting [14]), 21 to 40 mm; in [6] (setting [15]), 9 to 20 mm. The zone of inhibition at 1000 µg/mL in experiment [7] (setting [16]) was 21 to 40 mm; in [8] (setting [17]) it was 21 to 40 mm; in experiment [9] (setting [18]), > 41 mm.

For the molecule `C=CCNC(=O)C#CI` [Example 23, N-Allyl-3-iodopropiolamide], the zone of inhibition at 1000 µg/mL in [1] (IFO3301, read-out: diameter of the growth inhibition circle, Esc.(IFO-3301)) was 9 to 20 mm; in [2] (IFO0210, read-out: diameter of the growth inhibition circle, Sac.(IFO-0210)) it was 21 to 40 mm; in experiment [3] it was > 41 mm; in experiment [4] (IFO30340, read-out: diameter of the growth inhibition circle, Cor.(IFO-30340)), > 41 mm; in experiment [5] (IFO4407, read-out: diameter of the growth inhibition circle, Asp.(IFO-4407)) it was 21 to 40 mm; in experiment [6] (IFO13719, read-out: diameter of the growth inhibition circle, Bac.(IFO-13719)) it was 9 to 20 mm. In addition, the zone of inhibition at 1000 µg/mL in experiment [7] (IFO0583, read-out: diameter of the growth inhibition circle, Can.(IFO-0583)) is 21 to 40 mm; in experiment [8] (IFO12732, read-out: diameter of the growth inhibition circle, Sta.(IFO-12732)), 21 to 40 mm; in [9] (IFO7784, read-out: diameter of the growth inhibition circle, Pen.(IFO-7784)), > 41 mm.

On to `O=C(C#CI)Nc1ccc(Cl)cc1` [Example 24, N-(4-Chlorophenyl)-3-iodopropiolamide], for which the zone of inhibition at 1000 µg/mL is 9 to 20 mm in experiment [1] (setting [10]); 21 to 40 mm in experiment [2] (setting [11]); > 41 mm in experiment [3] (setting [12]); > 41 mm in experiment [4] (setting [13]); 21 to 40 mm in [5] (setting [14]); 9 to 20 mm in [6] (setting [15]). Also, the values for the zone of inhibition at 1000 µg/mL in experiment [7] (setting [16]), in [8] (setting [17]) and in experiment [9] (setting [18]) were 21 to 40 mm, 21 to 40 mm and > 41 mm, respectively.

Regarding `O=C(C#CI)Nc1ccc(Cl)cc1Cl` [Example 25, N-(2,4-Dichlorophenyl)-3-iodopropiolamide], the zone of inhibition at 1000 µg/mL in [1] (setting [10]) was 9 to 20 mm; in [2] (setting [11]) it was 21 to 40 mm; in experiment [3] (setting [12]), > 41 mm; in [4] (setting [13]), > 41 mm; in experiment [5] (setting [14]) it was 21 to 40 mm; in [6] (setting [15]), 9 to 20 mm. Further, the results for the zone of inhibition at 1000 µg/mL in experiment [7] (setting [16]), in experiment [8] (setting [17]) and in [9] (setting [18]) were 21 to 40 mm, 21 to 40 mm and > 41 mm, respectively.

In the case of `O=C(C#CI)Nc1cccc(C(F)(F)F)c1` [Example 26, N-(3-Trifluoromethylphenyl)-3-iodopropiolamide], the zone of inhibition at 1000 µg/mL in experiment [1] (setting [10]) is 9 to 20 mm; in [2] (setting [11]) it was 21 to 40 mm; in experiment [3] (setting [12]) it was 21 to 40 mm; in [4] (setting [13]), > 41 mm; in [5] (setting [14]), 21 to 40 mm; in experiment [6] (setting [15]) it was 9 to 20 mm. Moreover, the zone of inhibition at 1000 µg/mL in [7] (setting [16]) was 21 to 40 mm; in experiment [8] (setting [17]) it was 21 to 40 mm; in experiment [9] (setting [18]) it was > 41 mm.
